# Assay results published in patent US20250177405A1, “METHODS OF TREATING NEUROLOGICAL AND CARDIOVASCULAR CONDITIONS” (ASTROCYTE PHARMACEUTICALS, INC., priority 2021, published 2025).
# Experiments:
# [1] = tested on: brain A1R/A3R; test: estimated brain receptor occupancy of I-1 in nonhuman primate stroke study; format: in vivo
# Procedure: Cerebrospinal fluid drug concentration is an established proxy for unbound drug brain concentration that interacts with central receptor targets (references 46, 47). The unbound brain concentrations and resulting brain receptor occupancy at the A1R and A3R can be estimated using receptor affinity data and simple mass action equations (references 48, 49). […] Accordingly, during the 22 h infusion of I-1, sufficient CSF concentrations were available to provide coverage of central A1R and A3R in the macaque.
# Receptor occupancy is a mass action relationship:
# The percentage of a receptor occupied by an agonist or antagonist is a function of the drug concentration and the drug affinity for the receptor target. The challenge is that drug concentrations at the target site (in this case, brain, and CSF) can vary by species, as can affinity for the drug target. Affinity of I-1 for its receptor target can vary by as much as 5-fold between species. Accordingly, for each species, it is necessary to determine the I-1 affinity for its target as well as the concentration of I-1 at each administered dose in a relevant matrix.
# We then proceeded to our key preclinical stroke efficacy model in nonhuman primates. Pre-efficacy pharmacokinetic studies obtained plasma and CSF pharmacokinetic data. […]
# [2] = tested on: cynomolgus monkey model of transient middle cerebral artery occlusion (tMCAO); test: Neurologic Deficit Score (NDS) after tMCAO; format: in vivo, Macaca fascicularis; settings: study Days 1 to 5, I-1-treated composite versus vehicle, p=0.11
# Text: Twenty-four hours and 5 days after occlusion, neurologic deficits were scored using the Neurologic Deficits Score (NDS) as described elsewhere (reference 25). The NDS was considered as a secondary efficacy endpoint.
# [3] = physiological parameter assessment during tMCAO study; format: in vivo, Macaca fascicularis
# Procedure: Body weight, core body temperature, mean arterial blood pressure (MABP), heart rate, pO2, pCO2, sO2 and blood pH were assessed prior to and after tMCAO at designated intervals in relation to reported normal physiological ranges for each parameter (references 22-23).
# [4] = I-1 plasma and CSF concentrations during bolus/infusion regimen in tMCAO efficacy study; format: in vivo, Macaca fascicularis; settings: for predicted I-1 [Plasma]: 22 h infusion; for Measured I-1 [CSF] / measured I-1 [Plasma]: 22 h, n = 4
# Procedure: Macaques received a bolus dose of vehicle (40% PEG400 in 0.9% saline) or I-1 into a saphenous vein 2 h after occlusion (2 h prior to restoration of MCA blood flow), followed immediately by a 22 h intravenous infusion. This dosing regimen was designed to rapidly achieve and maintain pre-determined plasma and cerebrospinal fluid (CSF) steady-state concentrations of I-1 based on its pharmacokinetics previously determined in näive and MCA occluded macaques (Tables A-C below).
# During MRI, vehicle or I-1 were infused into the saphenous vein via a syringe pump (TOP5500E, TOP Corp., Tokyo, Japan). Infusion following MRI was maintained via a portable, programmable IPRECIO® Dual infusion pump (DMP-100; Primetech Corp., Tokyo, Japan) ported into a jugular venous line, both being secured in a jacket. Methods for pharmacokinetic sampling and bioanalytical analysis of plasma and CSF are described below.
# Blood samples (1.0 mL) were withdrawn into heparinized tubes from either the opposite cephalic or the femoral vein at 3, 6, 24, 48, 72 hours and 5 days post-occlusion. Heparinized blood was centrifuged at 4° C. at 1,800×g for 10 min. In the same animals, 0.3-0.5 mL of cerebrospinal fluid (CSF) was withdrawn at 6 and 24 hours post-occlusion. Macaques were sedated with ketamine (10 mg/kg, i.m.), CSF was collected via puncture of the cisterna magna. Plasma and CSF samples were flash frozen in liquid nitrogen and then stored at −70 C until shipment for processing. Samples were shipped on dry ice. Plasma and CSF concentrations of I-1 were determined by LC/MS/MS utilizing standard curves (performed at the Department of Bio Research, Kamakura Techno-Science, Inc. Kanagawa, Japan). Lower limits of quantitation for compound I-1 were 1.0 ng/mL and 0.1 ng/mL for plasma and CSF, respectively.
# [5] = High dose group, 5.2 mg/kg, 2.8 mg/kg/h, mean ± SEM
# [6] = Low dose group, 0.47 mg/kg, 0.25 mg/kg/h, mean ± SEM
# [7] = Mid dose group, 1.7 mg/kg, 0.9 mg/kg/h, mean ± SEM
smiles,measurement,setting,value
CSc1nc(N)c2ncn([C@H]3C(O)C(O)[C@]4(CO)C[C@H]34)c2n1 (stereo in doubt) [Compound I-1],estimated receptor occupancy associated with significant efficacy,"[1]; NHP stroke study, Low, Mid, High Doses",1-15%
same,estimated receptor occupancy at which efficacy started,[1]; monkey,~34%
same,neurological function (NDS) change,[2],improved but statistically non-significant
same,physiological parameters versus vehicle-treated group,[3]; baseline and during the study period,no clinically relevant differences
same,MABP or heart rate,"[3]; systemic I-1 administration, tMCAO macaques",did not result in significant alterations
same,plasma I-1 after end of infusion,[4]; 24 h following termination of Mid and High dose infusions,Measurable concentrations
same,predicted I-1 [Plasma],"[4]; High dose group, 5.2 mg/kg bolus, 2.8 mg/kg/h",1660 ng/mL
same,Measured I-1 [CSF],[4]; [5],108 ± 35 ng/mL
same,measured I-1 [Plasma],[4]; [5],1127 ± 246 ng/mL
same,predicted I-1 [Plasma],"[4]; Low dose group, 0.47 mg/kg bolus, 0.25 mg/kg/h",150 ng/mL
same,Measured I-1 [CSF],[4]; [6],8.8 ± 2.6 ng/mL
same,measured I-1 [Plasma],[4]; [6],186 ± 24 ng/mL
same,predicted I-1 [Plasma],"[4]; Mid dose group, 1.7 mg/kg bolus, 0.9 mg/kg/h",540 ng/mL
same,Measured I-1 [CSF],[4]; [7],16.8 ± 5.7 ng/mL
same,measured I-1 [Plasma],[4]; [7],483 ± 23 ng/mL
same,predicted I-1 [Plasma],"[4]; Very Low dose group, 0.11 mg/kg bolus, 0.06 mg/kg/h",35 ng/mL
same,measured I-1 [Plasma],"[4]; Very Low dose group, 0.11 mg/kg, 0.06 mg/kg/h, mean ± SEM of average over 22-hour infusion",32 ± 11 ng/mL
same,Measured I-1 [CSF],"[4]; Very Low dose group, 0.11 mg/kg, 0.06 mg/kg/h, mean ± SEM",2.1 ± 0.4 ng/mL
same,average plasma and CSF concentrations relative to targets,"[4]; combined bolus/infusion regimen, all dose levels",≤ 2 fold
same,plasma/CSF ratio,"[4]; correlation of I-1 plasma and CSF concentrations, FIG. 5C",approximately 10
